Reference: patent US11879132B2, “Plants having increased tolerance to herbicides” (BASF AGRO B.V., priority 2016, dated 2024)
Where two headings read alike, the source gives them in different places.

Key:
[1] = tested on: empty vector-transformed leaf discs; experiment: PSII yield inhibition in tobacco leaf discs (imaging PAM chlorophyll fluorescence); format: cell-based; conditions: Nicotiana benthamiana, read-out: IC50 of PSII yield inhibition
Description: Transient expression of mutated PPO sequences as wildtype or with respective mutations were done as described previously (Voinnet O., et al., 2003, The Plant Journal 33, 949-956). In brief, cloning of GOI and Agrobacterium transformation (strain: GV2260) were done as described in EXAMPLE 5. Young leaves of Nicotiana benthamiana were infiltrated with transgenic Agrobacterium suspension (OD^600 of 1.0) harboring binary vector constructs containing a GO/gene controlled by a promoter and terminator sequence. 48 h to 72 h after infiltration punches of leave discs (0.75 cm in diameter) were transferred to 6-well plates with medium (half strength Linsmaier-Skoog (Linsmaier and Skoog (1965) Physiol. Plant. 18: 100-127) nutrient solution or water) containing herbicide of interest in different concentrations. […]
Leaf discs, generated as described in EXAMPLE 14, expressing a protein encoded by GOI, were subjected to analysis on improved tolerance to herbicide treatment. For analysis of herbicide damage, chlorophyll fluorescence were identified as indicative marker (Dayan and Zaccaro (2012) Pest. Biochem. Physiol. 102: 189-197). […] PSII yield were measured as per manufacturer instructions.
Tolerance factors were calculated based on IC50 values of PSII yield inhibition of transformed versus empty vector-transformed leaf discs.

[2] = tested on: non-transgenic (MC-24) Arabidopsis; experiment: Germination assay, ARBTH germinating in medium containing selection agent (48-well plates); format: in vivo, Arabidopsis thaliana
Procedure: Transgenic Arabidopsis thaliana plants are assayed for improved tolerance to saflufenacil, 1,5-dimethyl-6-thioxo-3-(2,2,7-trifluoro-3-oxo-4-(prop-2-ynyl)-3,4-dihydro-2H-benzo[b][1,4]oxazin-6-yl)-1,3,5-triazinane-2,4-dione (CAS 1258836-72-4/trifludimoxazin), flumioxazin, butafenacil, acifluorfen, lactofen, bifenox, sulfentrazone, and photosynthesis inhibitor diuron as negative control in 48-well plates. Therefore, T2 seeds are surface sterilized by stirring for 5 min in ethanol+water (70+30 by volume), rinsing one time with ethanol+water (70+30 by volume) and two times with sterile, deionized water. […] Growth inhibition is evaluated seven to ten days after seeding in comparison to wild type plants.
Transgenic Arabidopsis thaliana plants are assayed for improved tolerance to saflufenacil, 1,5-dimethyl-6-thioxo-3-(2,2,7-trifluoro-3-oxo-4-(prop-2-ynyl)-3,4-dihydro-2H-benzo[b][1,4]oxazin-6-yl)-1,3,5-triazinane-2,4-dione (CAS 1258836-72-4/trifludimoxazin), flumioxazin, butafenacil, acifluorfen, lactofen, bifenox, sulfentrazone, and photosynthesis inhibitor diuron as negative control, in 48-well plates. […] Growth inhibition was evaluated seven to ten days after seeding in comparison to wild type plants. […]

[3] = tested on: transgenic Arabidopsis AMATU_PPO2_wild_type; experiment: Germination assay, transgenic ARBTH germinating in medium containing selection agent (48-well plates); format: in vivo, Arabidopsis thaliana
Procedure: (§1) Transgenic Arabidopsis thaliana plants are assayed for improved tolerance to saflufenacil, 1,5-dimethyl-6-thioxo-3-(2,2,7-trifluoro-3-oxo-4-(prop-2-ynyl)-3,4-dihydro-2H-benzo[b][1,4]oxazin-6-yl)-1,3,5-triazinane-2,4-dione (CAS 1258836-72-4/trifludimoxazin), flumioxazin, butafenacil, acifluorfen, lactofen, bifenox, sulfentrazone, and photosynthesis inhibitor diuron as negative control in 48-well plates. Therefore, T2 seeds are surface sterilized by stirring for 5 min in ethanol+water (70+30 by volume), rinsing one time with ethanol+water (70+30 by volume) and two times with sterile, deionized water. The seeds are resuspended in 0.1% agar dissolved in water (w/v) Four to five seeds per well are plated on solid nutrient medium consisting of half-strength murashige skoog nutrient solution, pH 5.8 (Murashige and Skoog (1962) Physiologia Plantarum 15: 473-497). Compounds are dissolved in dimethylsulfoxid (DMSO) and added to the medium prior solidification (final DMSO concentration 0.1%). Multi well plates are incubated in a growth chamber at 22° C., 75% relative humidity and 110 μmol Phot*m^−2*s^−1 with 14: 10 h light: dark photoperiod. Growth inhibition is evaluated seven to ten days after seeding in comparison to wild type plants.
as §1, with “negative control,” for “negative control”, “inhibition was” for “inhibition is”, “plants. Additionally, transgenic T1 Arabidopsis plants were tested for improved tolerance to herbicides in greenhouse studies with the following herbicides: saflufenacil, 1,5-dimethyl-6-thioxo-3-(2,2,7-trifluoro-3-oxo-4-(prop-2-ynyl)-3,4-dihydro-2H-benzo[b][1,4]oxazin-6-yl)-1,3,5-triazinane-2,4-dione (CAS 1258836-72-4/trifludimoxazin), flumioxazin, butafenacil, acifluorfen, lactofen, bifenox, sulfentrazone, and photosynthesis inhibitor diuron as negative control.” for “plants.”

[4] = tested on: transgenic Arabidopsis AMATU_PPO2_G211A_F420M; experiment: as above; format: in vivo, Arabidopsis thaliana; conditions: for IC50: Arabidopsis thaliana
Procedure: as §1
as §1, with “negative control,” for “negative control”, “inhibition was” for “inhibition is”, “plants. Additionally, transgenic T1 Arabidopsis plants were tested for improved tolerance to herbicides in greenhouse studies with the following herbicides: saflufenacil, 1,5-dimethyl-6-thioxo-3-(2,2,7-trifluoro-3-oxo-4-(prop-2-ynyl)-3,4-dihydro-2H-benzo[b][1,4]oxazin-6-yl)-1,3,5-triazinane-2,4-dione (CAS 1258836-72-4/trifludimoxazin), flumioxazin, butafenacil, acifluorfen, lactofen, bifenox, sulfentrazone, and photosynthesis inhibitor diuron as negative control.” for “plants.”

Row | SMILES | IC50 ([1]; empty vector-transformed leaf discs, treated for 48 h) | Tolerance Factor (non transgeneic = 1.0) [2] | IC50 ([2]; Arabidopsis thaliana) | Tolerance Factor (non transgeneic = 1.0) [3] | IC50 ([3]; Arabidopsis thaliana) | IC50 ([4]; Event D) | IC50 ([4]; Event M) | IC50 ([4]; Event P) | IC50 ([4]; Event Q) | IC50 ([4]; Event R) | Tolerance Factor (non transgeneic = 1.0) ([4]; Event D) | Tolerance Factor (non transgeneic = 1.0) ([4]; Event M) | Tolerance Factor (non transgeneic = 1.0) ([4]; Event P) | Tolerance Factor (non transgeneic = 1.0) ([4]; Event Q) | Tolerance Factor (non transgeneic = 1.0) ([4]; Event R) | IC50 ([1]; 48 h)
1 | C#CCN1C(=O)C(F)(F)Oc2cc(F)c(-n3c(=O)n(C)c(=S)n(C)c3=O)cc21 [1,5-dimethyl-6-thioxo-3-(2,2,7-trifluoro-3-oxo-4-(prop-2-ynyl)-3,4-dihydro-2H-benzo[b][1,4]oxazin-6-yl)-1,3,5-triazinane-2,4-dione] | 0.011 µM | – | – | – | – | – | – | – | – | – | – | – | – | – | – | –
2 | CC(C)N(C)S(=O)(=O)NC(=O)c1cc(-n2c(=O)cc(C(F)(F)F)n(C)c2=O)c(F)cc1Cl [Saflufenacil] | – | 1 | 0.025 µM | 10 | 0.106 µM | 25 µM | 25 µM | 7.5 µM | 7.5 µM | 7.5 µM | 1000 | 1000 | 300 | 300 | 300 | 0.11 µM
